# Results: ChEMBL document CHEMBL1126027, “Oxidation chemistry and biochemistry of the central mammalian alkaloid 1-methyl-6-hydroxy-1,2,3,4-tetrahydro-beta-carboline” (1992)
# Columns and labels:
# Format in all cases: functional
# Mus musculus [1] = species on record: Mus musculus; assay: Effect on whole mouse brain homovanillic acid level after 1 day (control = 100+/-4)
# Mus musculus [2] = species on record: Mus musculus; assay: Effect on whole mouse brain 5-HT acid level after 1 day (control = 100+/-3)
# Mus musculus [3] = species on record: Mus musculus; assay: Effect on whole mouse brain dopamine level after 1 day (control = 100+/-3)
# Mus musculus [4] = species on record: Mus musculus; assay: Effect on whole mouse brain DOPAC level after 1 day (control = 100+/-4)
# Mus musculus [5] = species on record: Mus musculus; assay: Effect on whole mouse brain choline level after 1 day (control = 100+/-1)
# Mus musculus [6] = species on record: Mus musculus; assay: Effect on whole mouse brain 5-hydroxyindoleacetic acid level after 1 day (control = 100+/-6)
# Mus musculus [7] = species on record: Mus musculus; assay: Effect on whole mouse brain acetylcholine level after 1 day (control = 100+/-8)
# Mus musculus [8] = species on record: Mus musculus; assay: Effect on whole mouse brain norepinephrine level after 1 day (control = 100+/-5)
# Mus musculus [9] = species on record: Mus musculus; assay: Effect on whole mouse brain acetylcholine level after 1 week (control = 100+/-13)
# Mus musculus [10] = species on record: Mus musculus; assay: Effect on whole mouse brain DOPAC level after 3h (control = 100+/-11)
# Mus musculus [11] = species on record: Mus musculus; assay: Effect on whole mouse brain norepinephrine level after 1 day (control = 100+/-3)
# Mus musculus [12] = species on record: Mus musculus; assay: Effect on whole mouse brain dopamine level after 1 week (control = 100+/-10)
# Mus musculus [13] = species on record: Mus musculus; assay: Effect on whole mouse brain norepinephrine level after 1 week (control = 100+/-10)
# Mus musculus [14] = species on record: Mus musculus; assay: Effect on whole mouse brain dopamine level after 3h (control = 100+/-3)
# Mus musculus [15] = species on record: Mus musculus; assay: Effect on whole mouse brain homovanillic acid level after 1 day (control = 100+/-3)
# Mus musculus [16] = species on record: Mus musculus; assay: Effect on whole mouse brain 5-HT acid level after 3h (control = 100+/-6)
# Mus musculus [17] = species on record: Mus musculus; assay: Effect on whole mouse brain choline level after 1 day (control = 100+/-9)
# Mus musculus [18] = species on record: Mus musculus; assay: Effect on whole mouse brain homovanillic acid level after 3h (control = 100+/-6)
# Mus musculus [19] = species on record: Mus musculus; assay: Effect on whole mouse brain choline level after 1 week (control = 100+/-9)
# Mus musculus [20] = species on record: Mus musculus; assay: Effect on whole mouse brain 5-HT acid level after 1 week (control = 100+/-9)
# Mus musculus [21] = species on record: Mus musculus; assay: Effect on whole mouse brain acetylcholine level after 1 day (control = 100+/-5)
# Mus musculus [22] = species on record: Mus musculus; assay: Effect on whole mouse brain 5-hydroxyindoleacetic acid level after 1 week (control = 100+/-10)
# Mus musculus [23] = species on record: Mus musculus; assay: Effect on whole mouse brain acetylcholine level after 3h (control = 100+/-5)
# Mus musculus [24] = species on record: Mus musculus; assay: Effect on whole mouse brain homovanillic acid level after 1 week (control = 100+/-5)
# Mus musculus [25] = species on record: Mus musculus; assay: Effect on whole mouse brain 5-HT acid level after 1 day (control = 100+/-2)
# Mus musculus [26] = species on record: Mus musculus; assay: Effect on whole mouse brain 5-hydroxyindoleacetic acid level after 1 day (control = 100+/-5)
# Mus musculus [27] = species on record: Mus musculus; assay: Effect on whole mouse brain DOPAC level after 1 week (control = 100+/-9)
# Mus musculus [28] = species on record: Mus musculus; assay: Effect on whole mouse brain norepinephrine level after 3h (control = 100+/-8)
# Mus musculus [29] = species on record: Mus musculus; assay: Effect on whole mouse brain DOPAC level after 1 day (control = 100+/-6)
# Mus musculus [30] = species on record: Mus musculus; assay: Effect on whole mouse brain 5-hydroxyindoleacetic acid level after 3h (control = 100+/-14)
# Mus musculus [31] = species on record: Mus musculus; assay: Effect on whole mouse brain choline level after 3h (control = 100+/-5)
smiles,measurement,setting,value
CC1NCCc2c1[nH]c1ccc(O)c(-c3c(O)ccc4[nH]c5c(c34)CCNC5C)c21 (stereo in doubt; 6),Control,Mus musculus [1],132%
same,Control,Mus musculus [2],107%
same,Control,Mus musculus [3],96%
same,Control,Mus musculus [4],101%
same,Control,Mus musculus [5],97%
same,Control,Mus musculus [6],163%
same,Control,Mus musculus [7],73%
same,Control,Mus musculus [8],104%
CC1NCCc2c1[nH]c1ccc(O)c(-c3c(O)ccc4[nH]c5c(c34)CCNC5C)c21 (stereo in doubt; 5),Control,Mus musculus [1],115%
same,Control,Mus musculus [2],94%
same,Control,Mus musculus [3],90%
same,Control,Mus musculus [4],97%
same,Control,Mus musculus [5],77%
same,Control,Mus musculus [6],146%
same,Control,Mus musculus [7],87%
same,Control,Mus musculus [8],102%
CC1NCCc2c1[nH]c1ccc(O)c(-c3c(O)ccc4[nH]c5c(c34)CCNC5C)c21 (centres undefined),Control,Mus musculus [9],94%
same,Control,Mus musculus [10],81%
same,Control,Mus musculus [11],105%
same,Control,Mus musculus [12],98%
same,Control,Mus musculus [13],111%
same,Control,Mus musculus [14],98%
same,Control,Mus musculus [15],107%
same,Control,Mus musculus [16],107%
same,Control,Mus musculus [17],97%
same,Control,Mus musculus [18],90%
same,Control,Mus musculus [19],107%
same,Control,Mus musculus [20],103%
same,Control,Mus musculus [21],78%
same,Control,Mus musculus [22],99%
same,Control,Mus musculus [23],98%
same,Control,Mus musculus [24],100%
same,Control,Mus musculus [25],111%
same,Control,Mus musculus [26],135%
same,Control,Mus musculus [27],96%
same,Control,Mus musculus [28],93%
same,Control,Mus musculus [29],93%
same,Control,Mus musculus [30],86%
same,Control,Mus musculus [31],83%
